This is an account of results in patent US4495101A, “Antiinflammatory 5H-tetrazolo (5,1-c)(1,4)benzodiazepine derivatives” (American Home Products Corporation, priority 1983, dated 1985).

The test system of the assay is carrageenan-induced paw edema. Briefly: rat carrageenan edema test (paw volume, mercury plethysmography). It is filed as in vivo, male Sprague-Dawley or Charles River rats. Conditions: 150 mg/kg oral, one hour prior to 1% carrageenan, read three hours after carrageenan, vs control, *p ≤ 0.05, **p ≤ 0.01. How it is done:
The anti-inflammatory activity of the claimed compounds was established by direct measurement of the effect of structurally representative compounds in the rat carrageenan edema test. This standard pharmacological procedure for determining antiinflammatory effects of a compound is performed by subcutaneous injection in the right paw of 6 animals (140-180 grams, male Sprague-Dawley or Charles River rats) with 0.1 milliliter of 1 percent carrageenan at zero time. The compounds representative of this invention are administered orally one hour prior to carrageenan at 150 milligrams per kilogram. The paw volume (edema in milliliters) is determined at zero time and three hours after carrageenan administration by mercury plethysmographic readings (milliliter) of the paw. From the change in paw volume compared to control, the percent inhibition of edema is determined. The results obtained with the compounds of Examples 1, 9, 17 and 18, which are representative of the other compounds of the invention, are as follows: […]
As to `O=C1Nc2ccc(Cl)cc2Cn2nnnc21` [Example 1, 7-Chloro-5,10-dihydro-11H-tetrazolo[5,1-c][1,4]-benzodiazepine-11-one], the “% Inhibition of Edema” value worked out at 39%.

Consider `S=C1Nc2ccc(Cl)cc2Cn2nnnc21` [Example 9, 5,10-Dihydro-7-Chloro-11H-tetrazolo[5,1-c][1,4]-benzodiazepine-11-thione], for which the “% Inhibition of Edema” value turned out to be 42%.

For the compound `CN1CCN(C2=Nc3cc(Cl)ccc3Cn3nnnc32)CC1` [Example 17, 8-Chloro-11-(4-methyl-1-piperazinyl)-5H-tetrazolo[5,1-c][1,4]benzodiazepine], the “% Inhibition of Edema” value is 42%.

Take `Cc1ccc2c(c1)Cn1nnnc1C(N1CCN(C)CC1)=N2` [Example 18, 7-Methyl-11-(4-methyl-1-piperazinyl)-5H-tetrazolo[5,1-c][1,4]benzodiazepine]: the “% Inhibition of Edema” value came out at 33%.
